# The source made the active and inactive calls. The rule behind the calls is not given here.
# Key:
# [1] = test system: Mus musculus; experiment: In vivo inhibition of ERGlu2 in BALB/c mouse assessed as increase in di-glucosylated FOS level in serum at 100 mg/kg, po administered via gavage starting at 8 hrs post-infection and continuing tid for 5 days and measured at 8 hrs post-final dose by NP-HPLC analysis; format: functional, organism-based
# [2] = test system: Mus musculus; experiment: In vivo inhibition of ERGlu2 in BALB/c mouse assessed as increase in mono-glucosylated FOS level in serum at 100 mg/kg, po administered via gavage starting at 8 hrs post-infection and continuing tid for 5 days and measured at 8 hrs post-final dose by NP-HPLC analysis; format: functional, organism-based
# [3] = test system: Influenza A virus; experiment: Antiviral activity against Influenza A virus (A/Texas/36/1991(H1N1)) infected in BALB/c mouse assessed as animal survival at 750 mg/kg, po administered via gavage as single dose at 8 hrs post infection (reference value: 0%); format: functional
# [4] = test system: Influenza A virus; experiment: Antiviral activity against Influenza A virus (A/Texas/36/1991(H1N1)) infected in BALB/c mouse assessed as animal survival at 500 mg/kg, po administered via gavage as three doses at 8, 32 and 56 hrs post infection (reference value: 0%); format: functional
# [5] = test system: Influenza A virus; experiment: Antiviral activity against Influenza A virus (A/Texas/36/1991(H1N1)) infected in BALB/c mouse assessed as animal survival at 750 mg/kg, po administered via gavage as single dose at 24 hrs post infection (reference value: 0%); format: functional
# [6] = test system: Influenza A virus; experiment: Antiviral activity against Influenza A virus (A/Texas/36/1991(H1N1)) infected in BALB/c mouse assessed as animal survival at 500 mg/kg, po administered via gavage as single dose at 24 hrs post infection (reference value: 0%); format: functional
# [7] = test system: Influenza A virus; experiment: Antiviral activity against Influenza A virus (A/Texas/36/1991(H1N1)) infected in BALB/c mouse assessed as median death time at 750 mg/kg, po administered via gavage as single dose at 8 hrs post infection; format: functional
# [8] = test system: Influenza A virus; experiment: Antiviral activity against Influenza A virus (A/Texas/36/1991(H1N1)) infected in BALB/c mouse assessed as median death time at 250 mg/kg, po administered via gavage as single dose at 8 hrs post infection; format: functional
# [9] = test system: Influenza A virus; experiment: Antiviral activity against Influenza A virus (A/Texas/36/1991(H1N1)) infected in BALB/c mouse assessed as median death time at 750 mg/kg, po administered via gavage as two doses at 8 hrs and 32 hrs post infection (reference value: 9 days); format: functional
# [10] = test system: Influenza A virus; experiment: Antiviral activity against Influenza A virus (A/Texas/36/1991(H1N1)) infected in BALB/c mouse assessed as median death time at 250 mg/kg, po administered via gavage as three dosed at 8, 32 and 56 hrs post infection (reference value: 8 days); format: functional
# [11] = test system: dengue virus type 2; experiment: Antiviral activity against Dengue virus 2 S221 infected in DENV antibody dependent enhancement AG129 mouse model assessed as animal survival at 750 mg/kg, po administered via gavage as two doses at 8 and 24 hrs post infection (reference value: 4%); format: functional
# [12] = test system: dengue virus type 2; experiment: Antiviral activity against Dengue virus 2 S221 infected in DENV antibody dependent enhancement AG129 mouse model assessed as animal survival at 375 mg/kg, po administered via gavage as two doses at 36 and 52 hrs post infection (reference value: 4%); format: functional
# [13] = test system: dengue virus type 2; experiment: (§1) Antiviral activity against Dengue virus 2 S221 infected in DENV antibody dependent enhancement AG129 mouse model assessed as reduction in IFN-gamma level at 750 mg/kg, po administered via gavage as single dose at 36 hrs post infection measured at 60 hrs post-infection by electrochemiluminescence based method; format: functional, organism-based
# [14] = test system: dengue virus type 2; experiment: as §1, with “IL10” for “IFN-gamma”; format: functional, organism-based
# [15] = test system: dengue virus type 2; experiment: as §1, with “two doses” for “single dose”, “36 hrs and 52” for “36”; format: functional, organism-based
# [16] = test system: dengue virus type 2; experiment: as §1, with “two doses” for “single dose”, “36 hrs and 52” for “36”, “72” for “60”; format: functional, organism-based
# [17] = Toxicity in po dosed cynomolgus monkey assessed as maximum tolerated dose administered via gavage as single dose; format: organism-based, Macaca fascicularis; settings: in vivo
# [18] = Half life in BALB/c mouse at 5 mg/kg, iv or 200 mg/kg, po measured upto 48 hrs by LC-MS/MS analysis; format: ADME, organism-based; settings: in vivo
# [19] = test system: Influenza A virus; experiment: Antiviral activity against Influenza A virus (A/PA/10/2010 (H3N2)) infected in BALB/c mouse assessed as increase in animal survival rate at >250 mg/kg, po administered via gavage as single dose at 8 hrs post infection; format: functional, organism-based
# [20] = test system: dengue virus type 2; experiment: Antiviral activity against Dengue virus 2 S221 infected in DENV antibody dependent enhancement AG129 mouse model assessed as animal survival at 750 mg/kg, po administered via gavage as two doses at 48 and 64 hrs post infection (reference value: 4%); format: functional
# [21] = test system: Influenza A virus; experiment: Antiviral activity against Influenza A virus (A/Texas/36/1991(H1N1)) infected in BALB/c mouse assessed as increase in animal survival rate at >250 mg/kg, po administered via gavage as single dose at 8 hrs post-infection; format: functional, organism-based
# [22] = test system: dengue virus type 2; experiment: Antiviral activity against Dengue virus 2 S221 infected in DENV antibody dependent enhancement AG129 mouse model assessed as reduction in viremia at 750 mg/kg, po administered via gavage as two doses at 36 hrs and 52 hrs post infection by qRT-PCR analysis; format: functional, organism-based
# [23] = test system: dengue virus type 2; experiment: Antiviral activity against Dengue virus 2 S221 infected in DENV antibody dependent enhancement AG129 mouse model assessed as reduction in viremia by measuring foci of BHK21 cells containing DENV E at 750 mg/kg, po administered via gavage as two doses at 36 hrs and 52 hrs post infection measured after titration of compound treated infected animal serum with BHK21 cells by TrueBlue staining based focus forming assay; format: functional, organism-based
# [24] = test system: dengue virus type 2; experiment: as §1, with “TNF-alpha” for “IFN-gamma”; format: functional, organism-based
# [25] = test system: dengue virus type 2; experiment: as §1, with “TNF-lapha” for “IFN-gamma”, “two doses” for “single dose”, “36 hrs and 52” for “36”; format: functional, organism-based
# [26] = test system: dengue virus type 2; experiment: as §1, with “TNF-alpha” for “IFN-gamma”, “two doses” for “single dose”, “36 hrs and 52” for “36”, “72” for “60”; format: functional, organism-based
# [27] = test system: Cynomolgus monkey; experiment: In vivo inhibition of ERGlu2 in cynomolgus monkey serum assessed as increase in mono-glucosylated FOS level in serum at 26 to 258 mg/kg, po administered via gavage as single dose and measured up to 72 hrs post-dose by NP-HPLC analysis; format: functional, organism-based; settings: Macaca fascicularis
# [28] = test system: Mus musculus; experiment: In vivo inhibition of ERGlu2 in BALB/c mouse assessed as increase in mono-glucosylated FOS level in lung at 100 mg/kg, po administered via gavage starting at 8 hrs post-infection and continuing tid for 5 days and measured at 8 hrs post-final dose by NP-HPLC analysis; format: functional, organism-based
# [29] = test system: Mus musculus; experiment: In vivo inhibition of ERGlu1 in BALB/c mouse assessed as increase in mono-glucosylated FOS level in spleen at 100 to 1000 mg/kg, po administered via gavage at 8 hrs post-infection and measured at 8 hrs post-dose by NP-HPLC analysis; format: functional, organism-based
smiles,measurement,setting,value
COCCCCCCCCCN1C[C@H](O)[C@@H](O)[C@H](O)[C@H]1CO.Cl,inhibition,[1],Active
same,inhibition,[2],Active
same,survival at 750 mg/kg,[3],80%
same,survival at 500 mg/kg,[4],100%
same,survival at 750 mg/kg,[5],30%
same,survival at 500 mg/kg,[6],30%
same,Time,[7],>14 days
same,Time,[8],8 days
same,Time,[9],>14 days
same,Time,[10],9.5 days
same,survival at 750 mg/kg,[11],94%
same,survival at 375 mg/kg,[12],100%
same,Activity,[13],Active
same,Activity,[14],Active
same,Activity,[15],Active
same,Activity,[16],Active
same,MTD,[17],258 mg/kg
same,half-life,[18],5 h
same,Activity,[19],Active
same,survival at 750 mg/kg,[20],100%
same,Activity,[21],Active
same,Activity,[22],Active
same,Activity,[23],Active
same,Activity,[24],Active
same,Activity,[25],Active
same,Activity,[26],Active
same,inhibition,[27],Active
same,inhibition,[28],Active
same,inhibition,[29],Active

# Source: ChEMBL document CHEMBL4402592, “Targeting Endoplasmic Reticulum α-Glucosidase I with a Single-Dose Iminosugar Treatment Protects against Lethal Influenza and Dengue Virus Infections” (J Med Chem, 2020)
